# Where two headings read alike, the source gives them in different places.
# Key:
# Assay type in all cases: cell-based
# Aspergillus niger = assay: Minimum Inhibitory Concentration (MIC) on nutrient agar petri dishes
# Text: (§1) The term synergism is used when the action of a combination of antimicrobial substances is being evaluated.
# (§2) The synergism found for the mixtures according to the invention can be determined via the following mathematical mathematical formula (cf. F. C. Kull, P. C. Elisman, H. D.
# (§3) Qa=amount of component A in the active substance mixture which achieves the desired effect, i. e. no microbial growth,
# (§4) QA=amount of component A which, when used alone, suppresses the growth of the microorganisms,
# (§5) Qb=amount of component B in the active substance mixture which suppresses the growth of the microorganisms,
# (§6) QB=amount of component B which, when used alone, suppresses the growth of the microorganisms
# (§7) If the sum of the ratios for a mixture Qa/QA+Qb/QB=1, additivity is indicated; if it is <1, synergism has occurred; a value of >1 is indicative of antagonism.
# (§8) To determine the antimicrobial efficacy and synergy of active ingredients mixtures, the Minimum Inhibitory Concentration (MIC) of the active substances and their respective combinations were determined. The Minimum Inhibitory
# (§9) Concentration of a given antimicrobial compound or mixture is the lowest concentration expressed in […] (ppm) that under defined in vitro conditions inhibits the growth of a given micro-organism (for example bacteria, mould fungi, yeasts). The growth of the microorganisms is observed on petri dishes containing a defined nutrient agar. In the case of fungi, typical strains according to this test design for example would be species like those as indicated in tables 1a) and 1b)
# Fusarium solani = assay: as above
# Text: as §1, §2, §3, §4, §5, §6, §7, §8, §9
# [1] = tested on: Fungi Mix composed of the standard ASTM G 21-09 species; assay: Gypsum board mould resistance, ASTM G 21-09 (core protection); conditions: for Observed growth rating, Fungi Mix: facing papers not treated, 4 weeks at 28-30° C.
# Text: The fungicide mixtures as of the present invention and of the comparison example to be tested were made as follows: The respective actives were mixed in their respective weight ratio (see table 2) together with water and 1 wt. % dispersant Tristyrylphenol ethoxylate (in form of Soprophor® S 25), as thickener 0.1 wt. % of Xanthan gum and 1 wt. % wetting agent non-ionic EO/PO-Copolymer (in form of Pluronic 127 F), where the wt. % are based on the entire mixture and were homogenized with a high speed mixer (IKA Ultra Turrax Labor Dispergator) to give an aqueous suspension having a viscosity measured in accordance with CIPAC 192 method of 500-600 mPas and a particle size of the biocides of smaller than 30 μm measured in accordance with the CIPAC 187 method.
# For examination of the antifungal performance of the inventive mixtures the various mixtures prepared above were tested. The testing directly made in gypsum boards provides realistic and practically relevant data for evaluation. To achieve such data, gypsum boards were produced in the laboratory. For this purpose, a typical slurry recipe as given below for board production is used.
# The gypsum slurry is formed by mixing the dry components and the wet components together. The slurry is then mixed to achieve a homogeneous consistency. The fungicide mixtures as prepared above are then incorporated into the wet gypsum slurry respectively (total amount of actives in ppm see table 2) by adding and thoroughly mixing. For sandwiching the gypsum core, untreated cardboard (without fungicide) with a grammage of appr. 180 g/m^2 was used and after assembly of the plate the hand sheets are dried.
# The mould resistance of the gypsum board samples was evaluated according to the test method ASTM G 21-09. Following to this method, the manufactured gypsum boards as described above and after having been cut to an adequate size are placed on an agarplate and superficially are spoiled with fungal spores for a determined period of time of at the most 4 weeks. The respective total amount of actives in ppm based in gypsum/plaster ([…]) can be seen in the table.
# Spore suspensions are produced for each fungi (spore concentrations of approximately 10^6/ml). Organisms which are included in ASTM G 21 comprise Aspergillus niger (ATCC 9642), Aureobasidium pullulans (ATCC 15233) Chaetomium globosum (ATCC 6205), Gliocladium virens (ATCC 6459) and Penicillium pinophilium (ATCC 11797) (as pure culture but also as mixed inoculum), however any other fungi species known to be able to grow in gypsum boards may be used in addition or instead. Mineral agar (according to ASTM G21 of 2009) was used as growth media in the agar plates. Before inoculation the gypsum board hand sheets are cut into pieces of appr. 5×5 cm.
# For every concentration level, 3 test pieces are used in the test. Each sample is placed in a separate petri dish and then inoculated with the fungi mixture. The samples are then incubated at 28-30° C. for 28 days. Pre-reading of the samples may be performed at approximately 10 days after inoculation. The activity of the treatments may be assessed visually, using a rating system of 0-4 for growth inhibition of fungal growth.
# Results: The results as recorded after 4 weeks testing at 28-30° C. according to the requirements of test method ASTM G 21 are summarized in table 2.
SMILES,MIC (Aspergillus niger),MIC (Aspergillus niger; read-out: MIC),MIC (Fusarium solani),MIC (Fusarium solani; read-out: MIC),"Observed growth rating, Fungi Mix ([1]; 25 ppm on dry stucco in gypsum core)","Observed growth rating, Fungi Mix ([1]; 50 ppm on dry stucco in gypsum core)","Observed growth rating, Fungi Mix ([1]; 100 ppm on dry stucco in gypsum core)","Observed growth rating, Fungi Mix ([1]; 200 ppm on dry stucco in gypsum core)","Observed growth rating, Fungi Mix ([1]; 300 ppm on dry stucco in gypsum core)","Control of fungi growth on gypsum board (interpretation of Table 2) ([1]; tested concentration range 25-300 ppm, comparison with TBZ/PYM mixtures)"
"Cc1cc(C)nc(Nc2ccccc2)n1 [PYM, pyrimethanil]",500 ppm,250 µg/mL,1501 ppm,1000 µg/mL,,,,,,
"c1ccc2[nH]c(-c3cscn3)nc2c1 [TBZ, thiabendazole]",,,,250 µg/mL,4 (Heavy growth (60% to complete coverage)),4 (Heavy growth (60% to complete coverage)),4 (Heavy growth (60% to complete coverage)),4 (Heavy growth (60% to complete coverage)),3 (Medium growth (30 to 60%)),not good enough
